Assay results reported in patent publication US12337023B2, “Methods and compositions for the prevention and treatment of disease” (Stealth BioTherapeutics Inc., priority 2014, dated 2025).
Non-standard residues stand in square brackets, D forms with d. Residues, ends and D or L forms follow the SMILES beside them. No end group written: not given here. Dmt = Cc1cc(O)cc(C)c1C[C@H](N)C(=O)O

Assays:
[1] = system: several mammalian cell types; conditions: energy-independent manner (Zhao, et al., 2003); cited from earlier work
[2] = Col4a3 null mice, daily 5 mg/kg, 15 weeks of age, 30 minutes after the last injection; compared with 5 mg/kg at 6 weeks and 1 mg/kg at 15 weeks
Description: Homozygous male Col4a3 null mice and wild-type litter mates were used in this study. Subjects were divided into the following groups: • (1) Healthy wild-type controls • (2) Col4a3 null mice treated with water • (3) Col4a3 null mice treated with 1 mg/kg D-Arg-2′6′-Dmt-Lys-Phe-NH2 • (4) Col4a3 null mice treated with 5 mg/kg D-Arg-2′6′-Dmt-Lys-Phe-NH2 • (5) Col4a3 null mice treated with 5 mg/kg D-Arg-2′6′-Dmt-Lys-Phe-NH2 (Pharmacokinetics group)
Groups (1)-(4) consisted of 16 mice, out of which 10 were used for survival rate studies and 6 for pathology and RNA/protein analysis. Group (5) consisted of 6 mice, 3 of which were sacrificed at 30 minutes after the 7th injection (age, 6 weeks), and 3 at 24 hours after the 7th injection (age, 6 weeks).

[3] = system: Col4a3 null mice (Alport mice); experiment: Survival of Col4a3 null mice (Alport Syndrome mouse model); assay type: in vivo; conditions: 1 mg/kg or 5 mg/kg once daily subcutaneous
Text: Six animals from experimental groups (1)-(4) were sacrificed for tissue collection at week 15. One kidney from each animal was harvested for protein/RNA analysis and the second kidney was collected for paraffin sections for analysis via microscopy. Survival data was collected for the remaining 10 animals in groups (1)-(4).

mu-opioid receptor = mu-opioid receptor (Homo sapiens, UniProt P35372); conditions: stated in the description, no test described; cited from earlier work
mu-opioid receptor, sequence (P35372 whole entry, species assumed): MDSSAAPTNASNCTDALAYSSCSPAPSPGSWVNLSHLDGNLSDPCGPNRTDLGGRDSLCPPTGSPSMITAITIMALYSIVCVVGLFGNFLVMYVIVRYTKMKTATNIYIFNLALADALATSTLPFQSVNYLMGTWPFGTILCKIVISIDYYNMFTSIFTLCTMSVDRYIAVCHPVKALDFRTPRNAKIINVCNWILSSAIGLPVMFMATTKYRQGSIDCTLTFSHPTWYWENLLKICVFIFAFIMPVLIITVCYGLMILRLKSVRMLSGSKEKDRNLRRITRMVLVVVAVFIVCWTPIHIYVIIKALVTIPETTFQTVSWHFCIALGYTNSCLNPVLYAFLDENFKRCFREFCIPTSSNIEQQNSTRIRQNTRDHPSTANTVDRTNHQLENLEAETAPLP

Which “penetration of the plasma membrane” value [1] does the source give for 2′,6′-Dmt-D-Arg-Phe-Lys-NH2 here?
Its value is “readily penetrates the plasma membrane”.

For Cc1cc(O)cc(C)c1C[C@H](NC(=O)[C@H](N)CCCNC(=N)N)C(=O)N[C@@H](CCCCN)C(=O)N[C@@H](Cc1ccccc1)C(N)=O [D-Arg-2′,6′-Dmt-Lys-Phe-NH2] (H-[dR][Dmt]KF-NH2), which plasma levels [2] is on record?
The plasma levels was “highest”.

And the “harm of peptide administration” value [3]?
Its value is “not harmful”.

For F[dR]FK-NH2, which “mu-opioid receptor agonist activity” value (mu-opioid receptor) is on record?
The value was “does not have mu-opioid receptor agonist activity”.

With Tyr-D-Arg-Phe-Lys-NH2 as the compound, how does the “mu-opioid receptor agonist activity” value (mu-opioid receptor) read?
Its value is “has mu-opioid receptor agonist activity”.
